From US20110028509A1, “Sulfonamides” (MERCK SERONO SA, priority 2008, published 2011)

Legend:
CXCR3 [1] = biological target: T1, CXCR3 (Homo sapiens, UniProt P49682); assay: Chemotaxis assay IP10, L1.2 recombinant cells expressing hCXCR3; assay type: cell-based; settings: L1.2 hCXCR3 cells, IP10 around 0.3 nM, 4 hours
T1 sequence (P49682 1-368): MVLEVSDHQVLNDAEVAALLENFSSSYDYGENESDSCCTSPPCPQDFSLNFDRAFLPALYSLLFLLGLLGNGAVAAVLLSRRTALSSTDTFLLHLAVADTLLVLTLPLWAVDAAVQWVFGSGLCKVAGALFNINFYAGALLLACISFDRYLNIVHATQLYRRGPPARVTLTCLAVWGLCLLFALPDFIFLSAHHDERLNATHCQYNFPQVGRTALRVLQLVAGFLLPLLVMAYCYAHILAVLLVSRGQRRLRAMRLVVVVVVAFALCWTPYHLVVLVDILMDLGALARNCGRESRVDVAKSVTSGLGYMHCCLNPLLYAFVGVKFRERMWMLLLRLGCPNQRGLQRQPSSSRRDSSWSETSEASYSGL
Experimental: Human CXCR3 cDNA was amplified by PCR from a human cells cDNA library (Clontech) and subcloned into pcDNA3.1 (Invitrogen). Murine pre-B L1.2 cells were transfected with hCXCR3-pcDNA3.1 and were grown at 37° C., 5% CO2 in RPMI 1640 medium (Invitrogen, USA) supplemented with 5% heat inactivated fetal calf serum (Cancerra, Australia), 2 mM glutamine (Invitrogen), 50 units ml−1 penicillin, 50 μml−1 streptomycin. Stable transfectant clonal populations were selected using 800 μg/ml geneticin.
L1.2 recombinant cells expressing the receptor hCXCR3 were maintained in culture in RPMI 1640 (invitrogen), 5% Foetal Bovine Serum (invitrogen), 2 mM glutamine(invitrogen), 50 u/ml penicillin/streptomycin (invitrogen), at 37° C.-5% CO2—in an H2O saturated incubator. In order to stimulate the expression of the receptor, cells were incubated overnight with 5 mM butyric acid (Sigma)
This mix of cells/compounds was then incubated at 37° C.-5% CO2—in an H2O saturated incubator during 30 minutes. Cells were then dispensed as a drop on each corresponding wells of the chemotaxis system. Cell migration was then induced at 37° C.-5% CO2—in an H2O incubator during 4 hours. Filters were then removed and cells that had migrated were transferred in a black plate (Costar). The plates were stored overnight at −80° C. Cell migration ratio was calculated using the cyquant dye (Molecular Probes-C7026).

CXCR3 [2] = biological target: T1, CXCR3; assay: Radioligand binding, scintillation proximity assay ([125I]IP-10 or [125I]I-TAC competition) on CHO-CXCR3 cell membranes; parameters: host or cells: CHO cells stably expressing hCXCR3; settings: [125I]IP-10, human CXCR3 cell membranes, Cheng-Prusoff; read-out: Binding Ki (μM) IP10
Experimental: Human chinese hamster ovary (CHO) cell line stably expressing hCXCR3 was purchased from Euroscreen (Belgium) and culture in HAM's F12 (Invitrogen) containing 10% heat inactivated fetal calf serum (Cancerra, Australia), 50 units ml−1 penicillin, 50 μml−1 streptomycin, (Invitrogen, USA) and 400 μg/ml geneticin (G418) (Calbiochem, San Diego), according to the manufacturer.
CHO cells expressing the human CXCR3 were disrupted by nitrogen cavitation (Parr Instruments, USA) at 4° C., 800 p.s.i. for 30 min in 50 mM Tris-HCl pH 7.5, 2 mM EDTA, 250 mM Sucrose and protease inhibitors (Roche). Cell membranes were prepared by differential centrifugation (200×g for 10 min, then 100000×g for 60 min). Membranes pellets were re-suspended in 50 mM Tris-HCL pH 7.4, 1 mM EDTA, 10 mM MgCl2, 250 mM sucrose and inhibitor of proteases. Purified CHO-CXCR3 cell membranes were frozen in liquid nitrogen and stored at −80° C.
A scintillation proximity assay was used for radioligand competition and saturation binding assays. For each assay point, 1 to 5 μg of human CXCR3 cell membranes were incubated in a final volume of 100 μl in 96 well plates (Corning, USA) for 120 minutes with shaking at room temperature in presence of 100 μg of wheat germ agglutinin-coated scintillation proximity assay beads (WGA-SPA, RPNQ0001, GE Healthcare), 0.05-0.1 nM [125I]I-TAC (Perkin Elmer, 1366Cie/mmol) or 0.1 nM [125I]IP-10 (Perkin Elmer, 2200 Cie/mmol) in binding buffer (50 mM HEPES/KOH pH 7.4, 10 mM MgCl2, 1 mM CaCl2, 0.1% bovine serum albumin (BSA), 100 mM NaCl with protease inhibitor cocktail tablets (Roche). Assay was performed in presence of 1% dimethylsulphoxide (Me2SO). Binding activity was determined using a 1450 Micro-beta scintillation counter (Wallac, UK). Ki values were calculated using the Cheng-Prusoff equation (Cheng and Prusoff, 1973) and represent the average of at least three independent dose response experiments.

CXCR3 [3] = biological target: T1, CXCR3; assay: Chemotaxis assay ITAC (CXCL11), L1.2-CXCR3 cells; assay type: cell-based; parameters: expressed in transfected cells; settings: 1 nM CXCL11 (I-TAC), 4 hours
Method in brief: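 Murine pre-B L1.2 cells stably expressing human CXCR3, pretreated 24 h with 5 mM butyric acid, preincubated with compound 30 min at 37 °C in 1% DMSO. Migration toward 1 nM CXCL11 (also with compound) through 8 μm filters for 4 h at 37 °C; migrated cells counted with CyQuant GR dye.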

CXCR3 [4] = biological target: T1, CXCR3; assay: CXCR3 Ca2+ mobilization (FLIPR), stable hCXCR3-CHO cell line, I-TAC stimulated; assay type: cell-based; parameters: host or cells: CHO cells stably expressing hCXCR3; settings: hCXCR3-CHO cells, I-TAC 100 nM stimulated Ca2+ response; read-out: Ca-ITAC
Method in brief: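 Ca2+ mobilization triggered by I-TAC (100 nM) measured by FLIPR in a stable hCXCR3-CHO line. Dye-loaded (60 min) cells preincubated with compounds 20 minutes at room temperature; antagonism given relative to the compound-free I-TAC signal set at 100%.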

| Structure (SMILES) | IC50 (CXCR3 [1]) | Ki (CXCR3 [2]) | IC50 (CXCR3 [3]) | IC50 (CXCR3 [4]) |
| --- | --- | --- | --- | --- |
| O=C(NCC1CC1)c1ccc(CN(Cc2ccccn2)S(=O)(=O)c2ccc(Cl)cc2)cc1 [Example 5, 4-{[[(4-chlorophenyl)sulfonyl](pyridin-2-ylmethyl)amino]methyl}-N-(cyclopropylmethyl)benzamide] | 0.2 µM | 0.168 µM | – | – |
| O=C(NCc1cccc(Cl)c1)c1ccc(CN(Cc2ccccn2)S(=O)(=O)c2ccc(Cl)cc2)cc1 [Example 6, N-(3-chlorobenzyl)-4-{[[(4-chlorophenyl)sulfonyl](pyridin-2-ylmethyl)amino]methyl}benzamide] | – | 0.123 µM | – | – |
| O=C(NCc1cccs1)c1ccc(CN(Cc2ccccc2)S(=O)(=O)c2ccc(Cl)cc2)cc1 [Example 7, 4-({benzyl[(4-chlorophenyl)sulfonyl]amino}methyl)-N-(2-thienylmethyl)benzamide] | 0.192 µM | 0.299 µM | – | – |
| O=C(NCc1cccc(Cl)c1)c1ccc(CN(Cc2ccccc2)S(=O)(=O)c2ccc(Cl)cc2)nc1 [Example 8, 6-({benzyl[(4-chlorophenyl)sulfonyl]amino}methyl)-N-(3-chlorobenzyl)nicotinamide] | 0.369 µM | 0.64 µM | – | – |
| O=C(NC1(c2ccccc2)CC1)c1ccc(CN(Cc2ccccc2)S(=O)(=O)c2ccc(Cl)cc2)cc1 [Example 10, 4-({benzyl[(4-chlorophenyl)sulfonyl]amino}methyl)-N-(1-phenylcyclopropyl)benzamide] | 0.238 µM | 0.155 µM | – | – |
| O=C(NS(=O)(=O)Cc1ccccc1)c1ccc(CN(Cc2ccccn2)S(=O)(=O)c2ccc(Cl)cc2)cc1 [Example 11, N-(benzylsulfonyl)-4-{[[(4-chlorophenyl)sulfonyl](pyridin-2-ylmethyl)amino]methyl}benzamide] | 0.404 µM | 0.1 µM | – | – |
| O=C(NS(=O)(=O)c1cccc(Cl)c1)c1ccc(CN(Cc2ccccc2)S(=O)(=O)c2ccc(Cl)cc2)cc1 [Example 12, N-[(3-chlorophenyl)sulfonyl]-4-{[benzyl[(4-chlorophenyl)sulfonyl]amino]methyl}benzamide] | 0.865 µM | 1.65 µM | – | – |
| O=C(NS(=O)(=O)c1cccc(Cl)c1)c1ccc(CN(Cc2ccccn2)S(=O)(=O)c2ccc(Cl)cc2)cc1 [Example 13, N-[(3-chlorophenyl)sulfonyl]-4{[[(4-chlorophenyl)sulfonyl](pyridin-2-ylmethyl)amino]methyl}benzamide] | 0.138 µM | 0.066 µM | – | – |
| O=S(=O)(c1ccc(Cl)cc1)N(Cc1ccc(-c2nnn[nH]2)cc1)Cc1ccccn1 [Example 16, 4-chloro-N-(pyridin-2-ylmethyl)-N-[4-(1H-tetrazol-5-yl)benzyl]benzenesulfonamide] | 0.496 µM | 0.092 µM | – | – |
| CCOc1ccc(S(=O)(=O)N(Cc2ccccc2)Cc2ccc(C(=O)NCC3CC3)cc2)cc1 [Example 18, 4-{[Benzyl-(4-ethoxy-benzenesulfonyl)-amino]-methyl}-N-cyclopropylmethylbenzamide] | – | 0.78 µM | 1680 nM | – |
| CCOc1ccc(S(=O)(=O)N(Cc2ccccc2)Cc2ccc(C(=O)NCc3ccccc3)cc2)cc1 [Example 33] | – | 0.197 µM | – | 530 nM |
| O=C(NC1(c2ccccc2)CC1)c1ccc(CN(Cc2ccccn2)S(=O)(=O)c2ccc(Cl)cc2)cc1 [Example 40, 4-{[(4-Chloro-benzenesulfonyl)-pyridin-2-ylmethyl-amino]-methyl}-N-(1-phenyl-cyclopropyl)-benzamide] | 0.025 µM | 0.015 µM | 53 nM | 90 nM |
| CCOc1ccc(S(=O)(=O)N(Cc2ccc(-c3nnn[nH]3)cc2)Cc2ccccn2)cc1 [Example 42, 4-Ethoxy-N-(pyridin-2-ylmethyl)-N-[4-(2H-tetrazol-5-yl)benzyl]benzenesulfonamide] | – | 0.161 µM | 1040 nM | 520 nM |
| N#Cc1ccc(S(=O)(=O)N(Cc2ccc(C(=O)NC3(c4ccccc4)CC3)cc2)Cc2ccccn2)cc1 [Example 44] | 0.013 µM | 0.01 µM | 33 nM | 268 nM |
